These results are taken from US20020016358A1, “Cosmetic composition” (NOF CORPORATION, priority 2000, published 2002).

Test [1] has as its system human melanoma cell (HM3KO). The test is described as follows: Suppression of melanin formation in human melanoma cell (HM3KO). Type of test: cell-based. The note with it: sample 10 μM in medium, cultivation 6 days, absorbance 410 nm of cell lysate, no addition = 100%. Here is the method: (Confirmation of Whitening Effect-1: Suppression of Melanin Formation) Using the obtained compounds of formulae (II) to (V), the effect of suppressing melanin production of human melanoma cell (HM3KO) was examined in vitro. More specifically, HM3KO was cultured to about 5×10^5 by a conventional method, collected by centrifugation to obtain pellets, and inoculated the pellet to a culture dish of 10 cm diameter containing an Eagle's medium supplemented with 10% fetal bovine serum and cultured at 37° C. for 24 hours. Thereafter, each polymethoxyflavone of formulae (II) to (V) was added, or kojic acid or arbutin for comparison was added thereto so that the final addition concentration was 10 μM, followed by cultivation for 6 days. After the cultivation, cells were collected by centrifugation, and 1 ml of 2N sodium hydroxide aqueous solution was added thereto to obtain cell lysate. The absorbance in a wavelength of 410 nm of the cell lysate was measured with a spectrophotometer. Here, the absorbance of the cell lysate to which a sample is not added is defined as 100% of the melanin production ratio, and the melanin production ratios are shown as relative values, measuring the absorbance of each cell lysate.

Test [2] relates to UV-induced pigmentation. The test is described as follows: Suppression of UV-induced pigmentation in brown guinea pigs. Type of test: in vivo. The settings on record: 40 μl twice a day, after UV 0.5 J/cm2; for Pigmentation degree ΔL, After 40 days: no addition −5.2; for Pigmentation degree ΔL, After 20 days: no addition −7.8. How it is done: (Confirmation of Whitening Effect-2: Suppression of UV-induced Pigmentation)
Using brown guinea pigs, the suppression of UV-induced pigmentation was examined in vivo. More specifically, the backs of the brown guinea pigs were shaved and covered with an ultraviolet shielding plate provided with 6 rectangular holes of 2×2 cm, followed by irradiation of UV (0.5 J/cm^2) to induce pigmentation. Thereafter, 40 μl of 70% (W/W) ethanol aqueous solution containing each of polymethoxyflavone (nobiletin) of formula (III) or polymethoxyflavone (tangeretin) of formula (IV) in a concentration shown in Table 2 were applied twice a day. Then, the degrees of pigmentation before and after the application were measured.
In Table 2, the pigmentation degree ΔL was obtained by measuring a L value before UV irradiation, which is defined as 0, with a spectrophotometric calorimeter, and obtaining the difference between the L values before and after UV irradiation. A lower value ΔL corresponds to a higher pigmentation degree.

The mark [3] stands for this setting: sample concentration 0.4% in 70% ethanol.
The mark [4] stands for this setting: sample concentration 4% in 70% ethanol, lower ΔL = more pigmentation.
The mark [5] stands for this setting: sample concentration 4% in 70% ethanol.

For the compound `OC[C@H]1O[C@@H](Oc2ccc(O)cc2)[C@H](O)[C@@H](O)[C@@H]1O` [Arbutin, reference compound], the “Melanin production ratio (% of control)” value in test [1] was 97 % of control.

Take `O=c1cc(CO)occ1O` [Kojic acid, reference compound]: the “Melanin production ratio (% of control)” value in test [1] is reported as 96 % of control.

On to `COc1ccc(-c2oc3c(OC)c(OC)c(OC)c(OC)c3c(=O)c2OC)cc1OC` [formula (II), 3,5,6,7,8,3′,4′-heptamethoxyflavone], for which, in test [1], the “Melanin production ratio (% of control)” value was 65 % of control.

As for `COc1ccc(-c2cc(=O)c3c(OC)c(OC)c(OC)c(OC)c3o2)cc1OC` [formula (III), 5,6,7,8,3′,4′-hexamethoxyflavone], the “Melanin production ratio (% of control)” value in test [1] is reported as 35 % of control. Further, the “Pigmentation degree ΔL, After 40 days” value was −3.2 in test [2] (setting [3]) and −1.9 in test [2] (setting [5]). Further, the results for the “Pigmentation degree ΔL, After 20 days” value in test [2] (setting [3]) and in test [2] (setting [4]) were −5.5 and −5.1, respectively.

Regarding `COc1ccc(-c2cc(=O)c3c(OC)c(OC)c(OC)c(OC)c3o2)cc1` [formula (IV), 5,6,7,8,4′-pentamethoxyflavone], in test [1], the “Melanin production ratio (% of control)” value is reported as 55 % of control. Further, the results for the “Pigmentation degree ΔL, After 40 days” value in test [2] (setting [3]) and in test [2] (setting [5]) were −3.5 and −3.3, respectively. The “Pigmentation degree ΔL, After 20 days” value is given as −6.1 in test [2] (setting [3]) and −5.6 in test [2] (setting [4]).

For `COc1ccc(-c2cc(=O)c3c(OC)cc(OC)c(OC)c3o2)cc1OC` [formula (V), 5,7,8,3′,4′-pentamethoxyflavone], the “Melanin production ratio (% of control)” value in test [1] is 60 % of control.
